Source: PubChem BioAssay AID248 (DTP/NCI, 2004)
“And” between values parts separate entries of the source, which are not always exact repeats. Equal entries are not always repeated. Toxic doses and inconclusive results are not listed. Rule as the data show it: active = T/C of 150% or more; inactive = T/C below 125%.

Test system: L1210 leukemia ip in BDF1 mice, survival T/C
Test: NCI In Vivo Anticancer Drug Screen. Data for tumor model L1210 Leukemia (intraperitoneal) in B6D2F1 (BDF1) mice
Conditions: higher = longer survival
Summary of the method: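 Ratio derived from survival: compound-dosed mice over vehicle-dosed mice, all bearing a transplantable tumor.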

[1] = endpoint: mean survival time, dose: 100.0 mg/kg/injection, schedule: Q01DX001 (ip), vehicle: Klucel (hydroxypropylcellulose) (HPC)
[2] = endpoint: mean survival time, dose: 100.0 mg/kg/injection, schedule: Q04DX003 (ip), vehicle: Klucel (hydroxypropylcellulose) (HPC)
[3] = endpoint: mean survival time, dose: 200.0 mg/kg/injection, schedule: Q01DX001 (ip), vehicle: Klucel (hydroxypropylcellulose) (HPC)
[4] = endpoint: mean survival time, dose: 200.0 mg/kg/injection, schedule: Q04DX003 (ip), vehicle: Klucel (hydroxypropylcellulose) (HPC)
[5] = endpoint: mean survival time, dose: 400.0 mg/kg/injection, schedule: Q01DX001 (ip), vehicle: Klucel (hydroxypropylcellulose) (HPC)
[6] = endpoint: mean survival time, dose: 400.0 mg/kg/injection, schedule: Q04DX003 (ip), vehicle: Klucel (hydroxypropylcellulose) (HPC)
[7] = endpoint: mean survival time, dose: 200.0 mg/kg/injection, schedule: Q01DX009 (ip), vehicle: Klucel (hydroxypropylcellulose) (HPC)
[8] = endpoint: mean survival time, dose: 100.0 mg/kg/injection, schedule: Q01DX009 (ip), vehicle: Klucel (hydroxypropylcellulose) (HPC)

Measured: T/C

CC/C(=C(/CC)c1ccc(O)cc1)c1ccc(O)cc1
inactive: endpoint: mean survival time, dose: 6.44 mg/kg/injection, schedule: Q01DX Z (sc), vehicle: steriod suspending solution 98 % of control | endpoint: mean survival time, dose: 12.88 mg/kg/injection, schedule: Q01DX Z (sc), vehicle: steriod suspending solution 109 % of control | endpoint: mean survival time, dose: 25.0 mg/kg/injection, schedule: Q01DX009 (ip), vehicle: carboxymethylcellulose (CMC) 87 % of control | endpoint: mean survival time, dose: 25.75 mg/kg/injection, schedule: Q01DX Z (sc), vehicle: steriod suspending solution 107 % of control | endpoint: mean survival time, dose: 50.0 mg/kg/injection, schedule: Q01DX001 (ip), vehicle: saline 90 % of control | endpoint: mean survival time, dose: 50.0 mg/kg/injection, schedule: Q01DX009 (ip), vehicle: carboxymethylcellulose (CMC) 94 % of control | endpoint: mean survival time, dose: 51.5 mg/kg/injection, schedule: Q01DX Z (sc), vehicle: steriod suspending solution 100 % of control | endpoint: mean survival time, dose: 100.0 mg/kg/injection, schedule: Q01DX001 (ip), vehicle: saline 94 % of control | endpoint: mean survival time, dose: 100.0 mg/kg/injection, schedule: Q01DX009 (ip), vehicle: carboxymethylcellulose (CMC) 95 % of control | endpoint: mean survival time, dose: 200.0 mg/kg/injection, schedule: Q01DX001 (ip), vehicle: saline 95 % of control | endpoint: mean survival time, dose: 200.0 mg/kg/injection, schedule: Q01DX009 (ip), vehicle: carboxymethylcellulose (CMC) 91 % of control | endpoint: mean survival time, dose: 400.0 mg/kg/injection, schedule: Q01DX001 (ip), vehicle: saline 87 % of control | endpoint: median survival time, dose: 8.0 mg/kg/injection, schedule: Q03HX016 (ip), vehicle: saline with Tween-80 97 % of control | endpoint: median survival time, dose: 8.0 mg/kg/injection, schedule: Q03HX024 (ip), vehicle: saline with Tween-80 98 % of control | endpoint: median survival time, dose: 12.5 mg/kg/injection, schedule: Q01DX009 (sc), vehicle: steriod suspending solution 100 % of control and 111 % of control | endpoint: median survival time, dose: 16.0 mg/kg/injection, schedule: Q01DX009 (ip), vehicle: saline with Tween-80 113 % of control | endpoint: median survival time, dose: 16.0 mg/kg/injection, schedule: Q03HX008 (ip), vehicle: saline with Tween-80 101 % of control | endpoint: median survival time, dose: 16.0 mg/kg/injection, schedule: Q03HX016 (ip), vehicle: saline with Tween-80 97 % of control | endpoint: median survival time, dose: 16.0 mg/kg/injection, schedule: Q03HX024 (ip), vehicle: saline with Tween-80 91 % of control | endpoint: median survival time, dose: 25.0 mg/kg/injection, schedule: Q01DX009 (sc), vehicle: steriod suspending solution 100 % of control and 106 % of control | endpoint: median survival time, dose: 32.0 mg/kg/injection, schedule: Q01DX009 (ip), vehicle: saline with Tween-80 110 % of control | endpoint: median survival time, dose: 32.0 mg/kg/injection, schedule: Q03HX008 (ip), vehicle: saline with Tween-80 97 % of control | endpoint: median survival time, dose: 32.0 mg/kg/injection, schedule: Q03HX016 (ip), vehicle: saline with Tween-80 97 % of control | endpoint: median survival time, dose: 32.0 mg/kg/injection, schedule: Q03HX024 (ip), vehicle: saline with Tween-80 98 % of control | endpoint: median survival time, dose: 50.0 mg/kg/injection, schedule: Q01DX009 (sc), vehicle: steriod suspending solution 100 % of control and 105 % of control | endpoint: median survival time, dose: 64.0 mg/kg/injection, schedule: Q01DX009 (ip), vehicle: saline with Tween-80 103 % of control | endpoint: median survival time, dose: 64.0 mg/kg/injection, schedule: Q03HX008 (ip), vehicle: saline with Tween-80 103 % of control | endpoint: median survival time, dose: 64.0 mg/kg/injection, schedule: Q03HX016 (ip), vehicle: saline with Tween-80 100 % of control | endpoint: median survival time, dose: 64.0 mg/kg/injection, schedule: Q03HX024 (ip), vehicle: saline with Tween-80 94 % of control | endpoint: median survival time, dose: 64.0 mg/kg/injection, schedule: Q04DX003 (ip), vehicle: saline with Tween-80 100 % of control | endpoint: median survival time, dose: 64.0 mg/kg/injection, schedule: Q08DX002 (ip), vehicle: saline with Tween-80 106 % of control | endpoint: median survival time, dose: 100.0 mg/kg/injection, schedule: Q01DX009 (sc), vehicle: steriod suspending solution 100 % of control and 105 % of control | endpoint: median survival time, dose: 128.0 mg/kg/injection, schedule: Q01DX001 (ip), vehicle: saline with Tween-80 107 % of control | endpoint: median survival time, dose: 128.0 mg/kg/injection, schedule: Q01DX009 (ip), vehicle: saline with Tween-80 102 % of control | endpoint: median survival time, dose: 128.0 mg/kg/injection, schedule: Q04DX003 (ip), vehicle: saline with Tween-80 101 % of control | endpoint: median survival time, dose: 128.0 mg/kg/injection, schedule: Q08DX002 (ip), vehicle: saline with Tween-80 104 % of control | endpoint: median survival time, dose: 256.0 mg/kg/injection, schedule: Q01DX001 (ip), vehicle: saline with Tween-80 109 % of control | endpoint: median survival time, dose: 256.0 mg/kg/injection, schedule: Q04DX003 (ip), vehicle: saline with Tween-80 107 % of control | endpoint: median survival time, dose: 256.0 mg/kg/injection, schedule: Q08DX002 (ip), vehicle: saline with Tween-80 98 % of control | endpoint: median survival time, dose: 512.0 mg/kg/injection, schedule: Q01DX001 (ip), vehicle: saline with Tween-80 108 % of control | endpoint: median survival time, dose: 512.0 mg/kg/injection, schedule: Q08DX002 (ip), vehicle: saline with Tween-80 92 % of control | endpoint: median survival time, dose: 1024.0 mg/kg/injection, schedule: Q08DX002 (ip), vehicle: saline with Tween-80 102 % of control | endpoint: median survival time, dose: 2048.0 mg/kg/injection, schedule: Q08DX002 (ip), vehicle: saline with Tween-80 102 % of control

CCN(Cc1ccncc1)C(=O)C(O)(c1ccccc1)c1ccccc1
inactive: endpoint: mean survival time, dose: 100.0 mg/kg/injection, schedule: Q01DX001 (ip), vehicle: saline with Tween-80 93 % of control | endpoint: mean survival time, dose: 200.0 mg/kg/injection, schedule: Q01DX001 (ip), vehicle: saline with Tween-80 88 % of control | endpoint: mean survival time, dose: 400.0 mg/kg/injection, schedule: Q01DX001 (ip), vehicle: saline with Tween-80 87 % of control

Cc1nc2ccccc2nc1CI
inactive: endpoint: mean survival time, dose: 3.12 mg/kg/injection, schedule: Q01DX009 (ip), vehicle: acetone 100 % of control | endpoint: mean survival time, dose: 6.25 mg/kg/injection, schedule: Q01DX009 (ip), vehicle: acetone 104 % of control | endpoint: mean survival time, dose: 12.5 mg/kg/injection, schedule: Q01DX009 (ip), vehicle: acetone 100 % of control | endpoint: mean survival time, dose: 12.5 mg/kg/injection, schedule: Q04DX003 (ip), vehicle: acetone 113 % of control | endpoint: mean survival time, dose: 18.0 mg/kg/injection, schedule: Q01DX009 (ip), vehicle: saline with Tween-80 92 % of control

COc1ccccc1CNCc1ccccc1
inactive: endpoint: mean survival time, dose: 75.0 mg/kg/injection, schedule: Q01DX001 (ip), vehicle: other 101 % of control

Clc1cccc(Cl)c1/C=N/N1CCN(/N=C/c2c(Cl)cccc2Cl)CC1
inactive: endpoint: mean survival time, dose: 100.0 mg/kg/injection, schedule: Q01DX001 (ip), vehicle: carboxymethylcellulose (CMC) 91 % of control | endpoint: mean survival time, dose: 200.0 mg/kg/injection, schedule: Q01DX001 (ip), vehicle: carboxymethylcellulose (CMC) 89 % of control | endpoint: mean survival time, dose: 400.0 mg/kg/injection, schedule: Q01DX001 (ip), vehicle: carboxymethylcellulose (CMC) 91 % of control

COC(=O)NS(=O)(=O)c1ccn(C)c1
inactive: [1] 97 % of control | [2] 100 % of control | [3] 98 % of control | [4] 100 % of control | [5] 104 % of control | [6] 100 % of control

CCCCCCCCCCC(O)CCCCCCCCCC
inactive: endpoint: mean survival time, dose: 100.0 mg/kg/injection, schedule: Q01DX009 (ip), vehicle: saline with Tween-80 96 % of control | endpoint: mean survival time, dose: 200.0 mg/kg/injection, schedule: Q01DX009 (ip), vehicle: saline with Tween-80 105 % of control | endpoint: mean survival time, dose: 400.0 mg/kg/injection, schedule: Q01DX009 (ip), vehicle: saline with Tween-80 93 % of control

c1ccc(N2N=NC3C4CC(C5COCC54)C32)cc1 (stereo unspecified)
inactive: [1] 97 % of control | [3] 104 % of control | [7] 121 % of control | [5] 109 % of control

CCCCOC(=O)c1cccc2c1-c1ccccc1C2=O
inactive: endpoint: mean survival time, dose: 100.0 mg/kg/injection, schedule: Q01DX001 (ip), vehicle: other 86 % of control | endpoint: mean survival time, dose: 200.0 mg/kg/injection, schedule: Q01DX001 (ip), vehicle: other 93 % of control | endpoint: mean survival time, dose: 400.0 mg/kg/injection, schedule: Q01DX001 (ip), vehicle: other 91 % of control

COc1ccc(/C=C(\C(=O)O)c2cccc3ccccc23)cc1
inactive: [8] 91 % of control | endpoint: mean survival time, dose: 100.0 mg/kg/injection, schedule: Q04DX002 (ip), vehicle: Klucel (hydroxypropylcellulose) (HPC) 100 % of control | [7] 107 % of control | endpoint: mean survival time, dose: 200.0 mg/kg/injection, schedule: Q04DX002 (ip), vehicle: Klucel (hydroxypropylcellulose) (HPC) 86 % of control | endpoint: mean survival time, dose: 400.0 mg/kg/injection, schedule: Q04DX002 (ip), vehicle: Klucel (hydroxypropylcellulose) (HPC) 104 % of control

c1ccc2c3c([nH]c2c1)CCCC3
inactive: [8] 97 % of control | [2] 107 % of control | [7] 113 % of control | [4] 105 % of control | [6] 102 % of control
